# Laboratory results taken from patent US9796755B2, “Methods of treating depression and other related diseases” (Northwestern University, priority 2009, dated 2017).
# Columns and labels:
# rats [1] = assay: Porsolt test (Forced Swim Test), systemic dosing; format: in vivo, rat
# Protocol: For the evaluation of the antidepressant actions of GLYX-13, the effect of GLYX-13 in the Porsolt test of depression was examined in rats. Porsolt testing is the most commonly used test for assessment of depression in animal model, Porsolt testing, also known as Forced Swim Test, is based on a behavioral trait that is sensitive to changes in affective state. During this test, the animal is placed in a tank (18 cm diameter×45 cm height) filled to 30 cm with 22-23° C. water. After placing the animal in the tank, the amount of time for which the rat is immobile when it stops struggling is measured. Porsolt test is based on the fact that antidepressants increase the latency to immobility and decrease the time for which the rat is immobile. […] The interpretation of the Porsolt test is that the antidepressants reinstate active coping mechanisms and decrease the passive immobility evoked by stress.
# In order to evaluate the effectiveness of GLYX-13 as antidepressant, three month old FBNF1 rats were separated into two groups of 9 animals. The first group of rats was intravenously injected with 10 mg/kg GLYX-13 and the second group of animals was intravenously injected with PBS vehicle (1 ml/kg) in a blind manner via chronic subdural femoral vein access ports. Both groups of animals were injected 10 to 15 minutes before the start of testing.
# For Porsolt testing, animals were given a 15 minute pre-test habituation in the tank to induce learned helplessness on day one. Following this, on the subsequent day, the animals were injected with GLYX-13 or vehicle 10-15 minutes before being placed into the tank for a 5 minute test session. After placing the animals in the tank, the amount of time for which each animal is immobile when it stops struggling (Mean Immobility Time) was measured. Decrease in Mean Immobility Time is a measure of the effectiveness of the antidepressant.
# A second experiment was performed in the same manner as Example 1, except that 2-3 month Sprague-Dawley rats were used, and treated with either intravenous (1, 3, 10, 32 mg/kg), subcutaneous (1, 3, 10, 32, 56, 100 mg/kg) injections of GLYX-13 or saline vehicle (1 mg/ml) 15 (i,v.) or 20 (s.c.) min before the start of the final 5 min test session. Ketamine (10 mg/kg i.p.) was given 60 min befbre the start of testing (Garcia et al., (2008) Prog Neuropsychopharmacol Biol Psychiatry, 32, 140-144).
# To determine whether the antidepressant effect of GLYX-13 was specific to the sequence of the GLXY-13 peptide, mean time (sec) spent floating in the Porsolt test was determined in groups of 12 three-month old Sprague Dawley rats administered with GLYX-13 (TPPT-NH2 (SEQ ID NO: 13); 3 mg/kg , i.v. tail vein), a scrambled peptide (PTPT-NH3(SEQ ID NO: 19); 3 mg/kg i.v. tail vein), or 0.9% saline vehicle (1 ml/kg, i.v. tail vein). Administration occurred 60 min before the 5 min testing session. Animals received a 15 min training swim session one day before dosing.
# To evaluate whether the anti-depressive and anxiolytic effects of GLYX-13 would persist beyond a few hours, rats were tested in the Porsolt test and the Open Field test, described above. Groups of 10-11 three-month old Sprague-Dawley rats were pretreated with GLYX-13 (3 mg/kg i.v.), ketamine (10 mg/kg i.v.) or saline vehicle injection (1 mg/ml i.v. tail vein) 96 hrs before the start of testing. Animals received a single 15 min. training swim session one day before dosing. Animals were tested 96 hrs post dosing in the Porsolt test without any testing during the intervening period. Open field testing was conducted without pre-habituation 1 day after Porsolt testing (i.e. 120 hrs post dosing). Mean(±SEM) time (sec.) spent floating in the Porsolt test, time spent in the center compartment (sec.), and line crosses in the open field test were determined.
# The Porsolt test adapted for use in rats was performed as above. […]
# [2] = tested on: patients suffering with refractory depression; conditions: cited from earlier work
# β-catenin = assay: Total β-catenin protein level in medial prefrontal cortex; format: in vivo, rat; conditions: 24 hrs after GLYX-13 3 mg/kg IV or ketamine 10 mg/kg IV
# GluR1 = assay: Total and phosphoserine-845 GluR1 by Western blot in medial prefrontal cortex; format: in vivo, rat; conditions: 24 hrs after GLYX-13 3 mg/kg IV or ketamine 10 mg/kg IV
# Source text: (§1) Total and Phosphoserine-9 glycogen synthase kinase 3β (GSK-3β) were quantified by ELISA according to the manufacturer's instructions (catalog numbers ADI-900-144 and ADI-900-123A, Assay Designs, USA). Total and phosphoserine-845 GluR1 were quantified by Western blot.
# rats [3] = assay: Drug discrimination in rats trained to discriminate ketamine from saline
# Protocol: Testing was conducted as described previously (Nicholson K L & Balster R L (2009) The discriminative stimulus effects of N-methyl-D-aspartate glycine-site ligands in NMDA antagonist-trained rats. Psychopharmacology (Berl) 203(2):441-451). Adult male Sprague Dawley rats were trained to discriminate ketamine (10 mg/kg IP) from saline. Animals were then tested following various doses of GLYX-13 administration (3-156 mg/kg SC) and the percent of ketamine lever responding and rates of responding were recorded.
# rats [4] = assay: Conditioned place preference; format: in vivo, rat; conditions: GLYX-13 10 mg/kg IV; ketamine 10 mg/kg IV
# Protocol: Animals were trained with GLYX-13 (10 mg/kg, IV), ketamine (10 mg/kg, IV), or saline vehicle (1 mL/kg, IV) utilizing an unbiased two-chamber conditioned place preference apparatus.
# rats [5] = assay: Prepulse inhibition; format: in vivo, rat; conditions: Sprague-Dawley rats; GLYX-13 10 mg/kg IV tested 15 min post injection; ketamine 10 mg/kg IP tested immediately
# Protocol: Animals were given intravenous injections of GLYX-13 (10 mg/kg) or saline via chronic indwelling femoral vein cannulae and tested 15 min post injection, or intraperitoneal ketamine (10 mg/kg) or saline vehicle (1 mL/kg IV or IP respectively) and tested immediately post injection for prepulse inhibition.
# [6] = tested on: glycogen synthase kinase 3β (GSK-3β); assay: Total and phosphoserine-9 GSK-3β by ELISA in medial prefrontal cortex; format: in vivo, rat; conditions: 24 hrs after GLYX-13 3 mg/kg IV or ketamine 10 mg/kg IV
# Source text: as §1
# [7] = literature (Bristow et al. 1996; Parsons et al. 1997); cited from earlier work
structure (smiles),measurement,setting,value
"NS(=O)(=O)c1cccc2c1c([N+](=O)[O-])cc1nc(O)c(O)nc12 [NBQX, reference compound]",effect of NBQX pretreatment on the antidepressant-like effect of GLYX-13 (floating time),"rats [1]; NBQX 10 mg/kg IP before GLYX-13 3 mg/kg IV, tested 1 hr post dosing",blocked the antidepressant-like effect of GLYX-13
"C[C@@H]([C@@H](O)c1ccc(O)cc1)N1CCC(O)(c2ccccc2)CC1 [CPC-101,606]",Hamilton Depression Rating Score,[2],significant reductions
"CNC1(c2ccccc2Cl)CCCCC1=O (stereo not drawn) [ketamine, reference compound]",total β-catenin,β-catenin,reduced
same,Phosphoserine-845 GluR1/total GluR1 ratio,GluR1,increased
same,suppression of operant responding (rates of responding),"rats [3]; IP, 30 mg/kg (higher dose)",suppress operant responding
same,ketamine-like discriminative stimulus effects (ketamine-lever selection),"rats [3]; IP, 5.6-30 mg/kg",dose-dependent increases in ketamine-lever selection
same,suppression of operant responding (rates of responding),"rats [3]; SC, 10 mg/kg (higher dose)",suppress operant responding
same,ketamine-like discriminative stimulus effects (ketamine-lever selection),"rats [3]; SC, 1-10 mg/kg",dose-dependent increases in ketamine-lever selection
same,Hamilton Depression Rating Score,[2],significant reductions
same,"conditioned place preference, an indicator of abuse potential",rats [4],induced conditioned place preference
same,"prepulse inhibition, an indicator of dissociative effects",rats [5],decreased prepulse inhibition
same,dissociative side effects,"rats [1]; 10 mg/kg subcutaneous, testing 20 min post dosing",severe dissociative side effects
same,effect on floating times in the Porsolt test,"rats [1]; Sprague Dawley rats, 10 mg/kg IP, 20-60 min post dosing",reduced floating times
same,phosphoserine-9 GSK-3β/total GSK-3β ratio,[6],reduced
"O=c1[nH]c2cc(Cl)ccc2c(O)c1-c1cccc(Oc2ccccc2)c1 [L-701,324]",anticonvulsant effects relative to ataxia (therapeutic index),[7],anticonvulsant effects at doses that produced ataxia
